Results reported in US8969325B2, “TRPV1 antagonists” (AbbVie Inc., priority 2011, dated 2015).

Assays:
[1] = biological target: T1, human TRPV1 (Homo sapiens (Human), UniProt Q8NER1); assay: Capsaicin Activation Assay (intracellular Ca2+, FLIPR); assay type: cell-based; settings: recombinant HEK293 cells expressing hTRPV1, 50 nM capsaicin
Summary of the method: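 Ca2+ fluorescence was recorded by FLIPR every 1 to 5 seconds in HEK293 cells, clonally selected for stable human TRPV1 expression and plated one day ahead. Test compounds came as serial dilutions of 10 mM DMSO stocks.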

[2] = biological target: T1, human TRPV1; assay: Acid Activation Assay (pH 5.0, intracellular Ca2+, FLIPR); assay type: cell-based; settings: percentage of the maximal pH 5.0-induced response remaining; recombinant HEK293 hTRPV1 cells; maximum concentration tested 37.5 μM
Summary of the method: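 Readout: peak [Ca2+]i fluorescence over baseline on FLIPR, expressed as percentage remaining of the maximal pH 5.0-evoked signal. Stable hTRPV1-HEK293 cells with Calcium-4 dye received compound (12 half-log concentrations, maximum 37.5 μM) 3 min before acidic pH 5.0 buffer.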

T1 sequence (Q8NER1 whole entry): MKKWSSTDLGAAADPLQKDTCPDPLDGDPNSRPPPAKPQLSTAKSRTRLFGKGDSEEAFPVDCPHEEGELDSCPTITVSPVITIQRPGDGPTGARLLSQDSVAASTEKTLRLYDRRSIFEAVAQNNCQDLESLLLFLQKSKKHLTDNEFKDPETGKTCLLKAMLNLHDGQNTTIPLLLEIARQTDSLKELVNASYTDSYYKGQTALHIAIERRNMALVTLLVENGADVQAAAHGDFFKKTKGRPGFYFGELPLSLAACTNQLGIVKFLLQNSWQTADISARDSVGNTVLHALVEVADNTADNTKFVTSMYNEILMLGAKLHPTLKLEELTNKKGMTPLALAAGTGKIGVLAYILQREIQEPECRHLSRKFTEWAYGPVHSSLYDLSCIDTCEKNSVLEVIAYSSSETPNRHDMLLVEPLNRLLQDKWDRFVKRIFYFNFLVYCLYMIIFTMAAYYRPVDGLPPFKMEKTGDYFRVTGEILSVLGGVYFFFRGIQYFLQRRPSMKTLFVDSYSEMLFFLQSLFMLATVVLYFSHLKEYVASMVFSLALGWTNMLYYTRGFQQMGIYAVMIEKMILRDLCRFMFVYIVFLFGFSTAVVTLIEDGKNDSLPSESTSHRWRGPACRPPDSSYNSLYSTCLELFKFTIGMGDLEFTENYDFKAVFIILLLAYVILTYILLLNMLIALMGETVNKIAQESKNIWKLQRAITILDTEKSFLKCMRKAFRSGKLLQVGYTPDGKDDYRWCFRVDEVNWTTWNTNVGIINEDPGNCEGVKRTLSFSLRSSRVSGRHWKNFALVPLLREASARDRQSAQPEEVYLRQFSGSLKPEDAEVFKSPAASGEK

| Compound | IC50 [1] [nM] | human TRPV1 H^+ (max % remain) [2] [%] |
| --- | --- | --- |
| O=C(Nc1cccc2[nH]c(=O)ccc12)N[C@@H]1CC(CF)(CF)Oc2cc(Cl)ccc21 [Example 99, 1-[(4R)-7-chloro-2,2-bis(fluoromethyl)-3,4-dihydro-2H-chromen-4-yl]-3-(2-oxo-1,2-dihydroquinolin-5-yl)urea] | 91 | 0 |
| O=C(Nc1ccc2c(c1)NC(=O)N(CCO)C2)N[C@H]1CC2(CCC2)Oc2ccc(F)cc21 [Example 56, 1-[(4S)-6-fluoro-3,4-dihydrospiro[chromene-2,1′-cyclobutan]-4-yl]-3-[3-(2-hydroxyethyl)-2-oxo-1,2,3,4-tetrahydroquinazolin-7-yl]urea] | 700 | 67 |
| Cn1c(=O)ccc2c(NC(=O)N[C@@H]3C[C@](C)(C(F)(F)F)Oc4ccccc43)cccc21 [Example 90, 1-(1-methyl-2-oxo-1,2-dihydroquinolin-5-yl)-3-[(2R,4R)-2-methyl-2-(trifluoromethyl)-3,4-dihydro-2H-chromen-4-yl]urea] | 11 | 45 |
| CCC1(CC)C[C@@H](NC(=O)Nc2cccc3c2CNC(=O)N3C)c2ccccc2O1 [Example 140, 1-[(4R)-2,2-diethyl-3,4-dihydro-2H-chromen-4-yl]-3-(1-methyl-2-oxo-1,2,3,4-tetrahydroquinazolin-5-yl)urea] | 11 | 27 |
| CN1C(=O)NCc2c(NC(=O)N[C@@H]3CCc4cc(C(C)(C)C)ccc43)cccc21 [Example 141, 1-[(1R)-5-tert-butyl-2,3-dihydro-1H-inden-1-yl]-3-(1-methyl-2-oxo-1,2,3,4-tetrahydroquinazolin-5-yl)urea] | 28 | 8 |
| Cn1c(=O)ccc2c(NC(=O)N[C@@H]3CCc4cc(F)ccc43)cccc21 [Example 83, 1-[(1R)-5-fluoro-2,3-dihydro-1H-inden-1-yl]-3-(1-methyl-2-oxo-1,2-dihydroquinolin-5-yl)urea] | 19 | 36 |
| C[C@@]1(CF)C[C@@H](NC(=O)Nc2ccc3c(c2)NC(=O)CO3)c2ccc(Cl)cc2O1 [Example 129, 1-[(2S,4R)-7-chloro-2-(fluoromethyl)-2-methyl-3,4-dihydro-2H-chromen-4-yl]-3-(3-oxo-3,4-dihydro-2H-1,4-benzoxazin-6-yl)urea] | 120 | 97 |
| Cn1c(=O)ccc2c(NC(=O)N[C@@H]3CCc4cc(C(F)(F)F)ccc43)cccc21 [Example 86, 1-(1-methyl-2-oxo-1,2-dihydroquinolin-5-yl)-3-[(1R)-5-(trifluoromethyl)-2,3-dihydro-1H-inden-1-yl]urea] | 10 | 23 |
| Cn1c(=O)ccc2c(NC(=O)N[C@@H]3CC(C)(C)Oc4c3ccc(Cl)c4F)cccc21 [Example 85, 1-[(4R)-7-chloro-8-fluoro-2,2-dimethyl-3,4-dihydro-2H-chromen-4-yl]-3-(1-methyl-2-oxo-1,2-dihydroquinolin-5-yl)urea] | 23 | 39 |
| CC1(C)C[C@@H](NC(=O)Nc2ccc3c(c2)NC(=O)N(CCO)C3)c2cc(F)ccc2O1 [Example 51, 1-[(4R)-6-fluoro-2,2-dimethyl-3,4-dihydro-2H-chromen-4-yl]-3-[3-(2-hydroxyethyl)-2-oxo-1,2,3,4-tetrahydroquinazolin-7-yl]urea] | 330 | 10 |
| Cn1c(=O)ccc2c(NC(=O)N[C@H]3CCOc4cc(OC(F)(F)F)ccc43)cccc21 [Example 78, 1-(1-methyl-2-oxo-1,2-dihydroquinolin-5-yl)-3-[(4S)-7-(trifluoromethoxy)-3,4-dihydro-2H-chromen-4-yl]urea] | 91 | 46 |
| CCC1(CC)C[C@@H](NC(=O)Nc2cccc3c2ccc(=O)n3C)c2cccc(F)c2O1 [Example 66, 1-[(4R)-2,2-diethyl-8-fluoro-3,4-dihydro-2H-chromen-4-yl]-3-(1-methyl-2-oxo-1,2-dihydroquinolin-5-yl)urea] | 15 | 42 |
| COCC1(COC)C[C@@H](NC(=O)Nc2cccc3c2ccc(=O)n3C)c2cc(F)ccc2O1 [Example 79, 1-[(4R)-6-fluoro-2,2-bis(methoxymethyl)-3,4-dihydro-2H-chromen-4-yl]-3-(1-methyl-2-oxo-1,2-dihydroquinolin-5-yl)urea] | 260 | 46 |
| 1-[(2R,4R)-7-chloro-2-(difluoromethyl)-2-methyl-3,4-dihydro-2H-chromen-4-yl]-3-(2-oxo-1,2,3,4-tetrahydroquinolin-7-yl)urea [Example 30] | 4 | 31 |
| Cn1c(=O)ccc2c(NC(=O)N[C@@H]3CC(C)(C)Oc4c3ccc(F)c4F)cccc21 [Example 81, 1-[(4R)-7,8-difluoro-2,2-dimethyl-3,4-dihydro-2H-chromen-4-yl]-3-(1-methyl-2-oxo-1,2-dihydroquinolin-5-yl)urea] | 53 | 39 |

Now from value to compound:

| IC50 [1] [nM] | human TRPV1 H^+ (max % remain) [2] [%] | Compound |
| --- | --- | --- |
| 150 | 14 | CCCC1(CCC)C[C@@H](NC(=O)Nc2ccc3c(c2)NC(=O)N(CCO)C3)c2cccc(F)c2O1 [Example 311, 1-[(4R)-8-fluoro-2,2-dipropyl-3,4-dihydro-2H-chromen-4-yl]-3-[3-(2-hydroxyethyl)-2-oxo-1,2,3,4-tetrahydroquinazolin-7-yl]urea] |
| 110 | 28 | C[C@]1(C(F)F)C[C@@H](NC(=O)Nc2ccc3c(c2)NC(=O)CC3)c2ccccc2O1 [Example 249, 1-[(2R,4R)-2-(difluoromethyl)-2-methyl-3,4-dihydro-2H-chromen-4-yl]-3-(2-oxo-1,2,3,4-tetrahydroquinolin-7-yl)urea] |
| 47 | 36 | CN1C(=O)NCc2c(NC(=O)N[C@@H]3CC(C)(C)Oc4ccc(F)cc43)cccc21 [Example 157, 1-[(4R)-6-fluoro-2,2-dimethyl-3,4-dihydro-2H-chromen-4-yl]-3-(1-methyl-2-oxo-1,2,3,4-tetrahydroquinazolin-5-yl)urea] |
| 110 | 18 | CN1C(=O)NCc2c(NC(=O)N[C@@H]3CCOc4c3cccc4C(C)(C)C)cccc21 [Example 142, 1-[(4R)-8-tert-butyl-3,4-dihydro-2H-chromen-4-yl]-3-(1-methyl-2-oxo-1,2,3,4-tetrahydroquinazolin-5-yl)urea] |
| 230 | 68 | CN1C(=O)CCc2ccc(NC(=O)N[C@@H]3C[C@@](C)(CF)Oc4cc(C(F)(F)F)ccc43)cc21 [Example 289, 1-[(2S,4R)-2-(fluoromethyl)-2-methyl-7-(trifluoromethyl)-3,4-dihydro-2H-chromen-4-yl]-3-(1-methyl-2-oxo-1,2,3,4-tetrahydroquinolin-7-yl)urea] |
| 120 | 42 | CN1Cc2ccc(NC(=O)N[C@@H]3CC(CF)(CF)Oc4cc(OC(F)(F)F)ccc43)cc2NC1=O [Example 183, 1-[(4R)-2,2-bis(fluoromethyl)-7-(trifluoromethoxy)-3,4-dihydro-2H-chromen-4-yl]-3-(3-methyl-2-oxo-1,2,3,4-tetrahydroquinazolin-7-yl)urea] |
| 170 | 72 | CN1C(=O)CCc2ccc(NC(=O)N[C@@H]3CCOc4ccccc43)cc21 [Example 258, 1-[(4R)-3,4-dihydro-2H-chromen-4-yl]-3-(1-methyl-2-oxo-1,2,3,4-tetrahydroquinolin-7-yl)urea] |
| 410 | 81 | CN1C(=O)CCc2ccc(NC(=O)N[C@@H]3CCOc4ccc(F)cc43)cc21 [Example 282, 1-[(4R)-6-fluoro-3,4-dihydro-2H-chromen-4-yl]-3-(1-methyl-2-oxo-1,2,3,4-tetrahydroquinolin-7-yl)urea] |
| 1300 | 29 | CC1(C)C[C@@H](NC(=O)Nc2ccc3c(c2)NC(=O)CC3)c2ccc(Cl)cc2O1 [Example 235, 1-[(4R)-7-chloro-2,2-dimethyl-3,4-dihydro-2H-chromen-4-yl]-3-(2-oxo-1,2,3,4-tetrahydroquinolin-7-yl)urea] |
| 760 | 50 | CN1Cc2ccc(NC(=O)N[C@@H]3CC(CF)(CF)Oc4c(F)cc(F)cc43)cc2NC1=O [Example 187, 1-[(4R)-6,8-difluoro-2,2-bis(fluoromethyl)-3,4-dihydro-2H-chromen-4-yl]-3-(3-methyl-2-oxo-1,2,3,4-tetrahydroquinazolin-7-yl)urea] |
| 4900 | 45 | CC1(C)C[C@H](NC(=O)Nc2ccc3c(c2)NC(=O)CC3)c2cc(F)ccc2O1 [Example 243, 1-[(4S)-6-fluoro-2,2-dimethyl-3,4-dihydro-2H-chromen-4-yl]-3-(2-oxo-1,2,3,4-tetrahydroquinolin-7-yl)urea] |
| 350 | 55 | CN1Cc2ccc(NC(=O)N[C@@H]3CC(CF)(CF)Oc4c(F)cccc43)cc2NC1=O [Example 198, 1-[(4R)-8-fluoro-2,2-bis(fluoromethyl)-3,4-dihydro-2H-chromen-4-yl]-3-(3-methyl-2-oxo-1,2,3,4-tetrahydroquinazolin-7-yl)urea] |
| 1 | 10 | CN1C(=O)NCc2c(NC(=O)N[C@@H]3C[C@](C)(C(F)(F)F)Oc4ccccc43)cccc21 [Example 166, 1-(1-methyl-2-oxo-1,2,3,4-tetrahydroquinazolin-5-yl)-3-[(2R,4R)-2-methyl-2-(trifluoromethyl)-3,4-dihydro-2H-chromen-4-yl]urea] |
